In the supplement of paper PMC13380429:

Columns and labels:
Settings in all cases: 72 h
Caco-2 [1] = assay: cell viability relative to DMSO; higher = less toxic
Calu-3 [2] = assay: as above
U2OS [3] = assay: as above
Vero E6 [4] = assay: as above
Caco-2 [5] = assay: relative viability EC50 (midpoint between 100% and the lowest measured viability); higher = less toxic
Calu-3 [6] = assay: as above
U2OS [7] = assay: as above
Vero E6 [8] = assay: as above
Caco-2 [9] = assay: drug sensitivity score (DSS) for viability; higher = more toxic; extreme values may be limits of the assay
Calu-3 [10] = assay: as above
U2OS [11] = assay: as above
Vero E6 [12] = assay: as above
HepG2 [13] = assay: cell viability relative to DMSO; higher = less toxic
HepG2 [14] = assay: relative viability EC50 (midpoint between 100% and the lowest measured viability); higher = less toxic
HepG2 [15] = assay: drug sensitivity score (DSS) for viability; higher = more toxic; extreme values may be limits of the assay

| Compound | cell viability (Caco-2 [1]; 1 nM) [%] | cell viability (Caco-2 [1]; 10 nM) [%] | cell viability (Caco-2 [1]; 100 nM) [%] | cell viability (Caco-2 [1]; 1000 nM) [%] | cell viability (Caco-2 [1]; 10000 nM) [%] | cell viability (Calu-3 [2]; 1 nM) [%] | cell viability (Calu-3 [2]; 10 nM) [%] | cell viability (Calu-3 [2]; 100 nM) [%] | cell viability (Calu-3 [2]; 1000 nM) [%] | cell viability (Calu-3 [2]; 10000 nM) [%] | cell viability (U2OS [3]; 1 nM) [%] | cell viability (U2OS [3]; 10 nM) [%] | cell viability (U2OS [3]; 100 nM) [%] | cell viability (U2OS [3]; 1000 nM) [%] | cell viability (U2OS [3]; 10000 nM) [%] | cell viability (Vero E6 [4]; 1 nM) [%] | cell viability (Vero E6 [4]; 10 nM) [%] | cell viability (Vero E6 [4]; 100 nM) [%] | cell viability (Vero E6 [4]; 1000 nM) [%] | cell viability (Vero E6 [4]; 10000 nM) [%] | relative viability EC50 (Caco-2 [5]) [µM] | relative viability EC50 (Calu-3 [6]) [µM] | relative viability EC50 (U2OS [7]) [µM] | relative viability EC50 (Vero E6 [8]) [µM] | drug sensitivity score (Caco-2 [9]) | drug sensitivity score (Calu-3 [10]) | drug sensitivity score (U2OS [11]) | drug sensitivity score (Vero E6 [12]) | cell viability (HepG2 [13]; 1 nM) [%] | cell viability (HepG2 [13]; 10 nM) [%] | cell viability (HepG2 [13]; 100 nM) [%] | cell viability (HepG2 [13]; 1000 nM) [%] | cell viability (HepG2 [13]; 10000 nM) [%] | relative viability EC50 (HepG2 [14]) [µM] | drug sensitivity score (HepG2 [15]) |
| --- | --- | --- | --- | --- | --- | --- | --- | --- | --- | --- | --- | --- | --- | --- | --- | --- | --- | --- | --- | --- | --- | --- | --- | --- | --- | --- | --- | --- | --- | --- | --- | --- | --- | --- | --- |
| Cc1cccc(C)c1NC(=O)c1ccccc1C(=O)O [ftaxilide] | 94.5 | 100 | 102 | 99.8 | 104 | 103 | 106 | 98.6 | 122 | 106 | 102 | 105 | 98.5 | 101 | 97.2 | 107 | 102 | 99.8 | 96.3 | 100 | > 10 | > 10 | > 10 | > 10 | 0 | 0 | 0 | 0 | – | – | – | – | – | – | – |
| Fc1ccc2c(CCNCc3cccc(OCC(F)(F)C(F)F)c3)c[nH]c2c1 [idalopirdine] | 96.3 | 97.5 | 91.5 | 87.1 | 109 | 90.3 | 102 | 91.4 | 101 | 99.7 | 95.3 | 97 | 99.7 | 95.4 | 96.7 | 101 | 95.2 | 98.7 | 95.2 | 84.9 | > 10 | > 10 | > 10 | > 10 | 0 | 0 | 0 | 0.5 | 97.5 | 93.7 | 99.2 | 94.8 | 88.2 | > 10 | 0 |
| C[C@@H]1COCCN1c1cc(C2(S(C)(=O)=O)CC2)nc(-c2cccc3[nH]ccc23)n1 [AZ20] | 88.1 | 96.3 | 89.5 | 84.1 | 23.1 | 89.4 | 97 | 91.8 | 82.3 | 34.6 | 97.4 | 101 | 95.9 | 94.3 | 9.3 | 102 | 98.2 | 98.5 | 85.4 | 40 | 1.71 | 1.57 | 2.66 | 1.57 | 6.8 | 6 | 5.9 | 5.6 | 110 | 110 | 95.9 | 65.6 | 31.8 | 0.973 | 7.8 |
| N[C@@H](Cc1c[nH]c2ccccc12)C(=O)O [tryptophan] | 105 | 96.6 | 85.7 | 110 | 97.5 | 106 | 97.1 | 107 | 107 | 103 | 97.2 | 101 | 101 | 99.1 | 98.1 | 99.7 | 108 | 94.4 | 91.3 | 99.8 | > 10 | > 10 | > 10 | > 10 | 0 | 0 | 0 | 0 | 88.3 | 95.1 | 103 | 88.9 | 100 | > 10 | 0 |
| O=C(NS(=O)(=O)c1ccc(Br)s1)c1ccc(Cl)cc1Cl [tasisulam] | 99.7 | 104 | 94.9 | 101 | 92 | 96.2 | 104 | 97.6 | 95.4 | 100 | 97.2 | 98.1 | 96 | 101 | 102 | – | – | – | – | – | > 10 | > 10 | > 10 | – | 0 | 0 | 0 | – | 114 | 94.2 | 105 | 110 | 107 | > 10 | 0 |
| COC(=O)c1c(-c2cc(OC)c(OC)c(OC)c2)c2ccnc(OCc3ncccn3)c2c(=O)n1Cc1ccnc(C)c1 [T-0156] | 96.4 | 93 | 89.6 | 99.9 | 103 | 87 | 96.4 | 90.2 | 98.5 | 101 | 95.6 | 103 | 96.5 | 99.3 | 100 | 96 | 94.4 | 102 | 105 | 109 | > 10 | > 10 | > 10 | > 10 | 0 | 0 | 0 | 0 | – | – | – | – | – | – | – |
| NC(=O)c1ccc[n+]([C@@H]2O[C@H](COP(=O)([O-])OP(=O)(O)OC[C@H]3O[C@@H](n4cnc5c(N)ncnc54)[C@H](O)[C@@H]3O)[C@@H](O)[C@H]2O)c1 [nadide] | 92.3 | 89.7 | 99.9 | 90.5 | 113 | 102 | 103 | 94 | 96.1 | 106 | 101 | 95.9 | 97.9 | 101 | 111 | – | – | – | – | – | > 10 | > 10 | > 10 | – | 0 | 0 | 0 | – | 110 | 113 | 92.1 | 99.2 | 99.8 | > 10 | 0 |
| NCCNCCNCCN [trientine] | 107 | 106 | 96.4 | 94.4 | 97.6 | 89 | 101 | 99 | 98.7 | 99.9 | 100 | 99.1 | 100 | 97.5 | 104 | – | – | – | – | – | > 10 | > 10 | > 10 | – | 0 | 0 | 0 | – | 90.9 | 96.6 | 92.1 | 98 | 92.8 | > 10 | 0 |
| Nc1ccc(-c2nc3ccc(-c4nc5ccc(N)cc5[nH]4)cc3[nH]2)cc1 [Ro-90-7501] | 94 | 91.6 | 96.8 | 95.3 | 99.7 | 104 | 105 | 102 | 102 | 97 | 105 | 94.5 | 100 | 98.5 | 100 | 93.3 | 101 | 89.7 | 98.7 | 113 | > 10 | > 10 | > 10 | > 10 | 0 | 0 | 0 | 0 | 98.3 | 98.7 | 93.4 | 79.5 | 54.6 | – | 4.5 |
| C=C(CC)C(=O)c1ccc(OCC(=O)O)c(Cl)c1Cl [etacrynic-acid] | 93.4 | 100 | 96.2 | 84.9 | 97 | 90.3 | 94 | 97.5 | 90.5 | 106 | 98.7 | 101 | 97.8 | 102 | 103 | – | – | – | – | – | > 10 | > 10 | > 10 | – | 0 | 0 | 0 | – | 99.4 | 110 | 105 | 100 | 86.2 | > 10 | 0.1 |
| NCCC[C@H](N)C(=O)O [ornithine] | 97.2 | 94.7 | 101 | 101 | 100 | 103 | 95.6 | 102 | 102 | 104 | 100 | 93.5 | 99.1 | 96.8 | 104 | – | – | – | – | – | > 10 | > 10 | > 10 | – | 0 | 0 | 0 | – | 97.3 | 112 | 94.7 | 97.2 | 91.8 | > 10 | 0 |
| NS(=O)(=O)c1cc2c(cc1C(F)(F)F)NC(Cc1ccccc1)NS2(=O)=O (stereo unspecified) [bendroflumethiazide] | 96.6 | 101 | 96.9 | 99.1 | 108 | 109 | 110 | 107 | 98.2 | 95.1 | – | – | – | – | – | 92.4 | 94.9 | 91.7 | 92.4 | 109 | > 10 | > 10 | – | > 10 | 0 | 0 | – | 0 | 106 | 87.1 | 98.7 | 93.3 | 98.6 | > 10 | 0 |
| Cc1cn([C@H]2O[C@@H](CO)[C@H](O)[C@H]2F)c(=O)[nH]c1=O [clevudine] | 102 | 105 | 94.4 | 108 | 87.5 | 90.3 | 106 | 106 | 97.9 | 99.3 | 92.4 | 102 | 101 | 98.2 | 97.2 | – | – | – | – | – | > 10 | > 10 | > 10 | – | 0 | 0 | 0 | – | 105 | 92.7 | 104 | 95.2 | 97.1 | > 10 | 0 |
